From patent publication US11331368B2, “Angiotensin receptor agonists and uses thereof” (Monash University, priority 2017, dated 2022)

Tests used:
[1] = tested on: male FVB/N mice on high salt diet, liver; assay: High salt (5%) diet intervention model, liver; format: in vivo, mouse; details: weeks 5-8; peptides 75 pmol/kg/min s.c.; Cand 2 mg/kg/day, captopril 3 mg/kg/day
[2] = tested on: human cardiac fibroblasts; assay: TGF-β1-induced collagen production in human cardiac fibroblasts (Western blot); format: cell-based; details: co-treated with TGF-β1 for 3 days, increasing concentrations up to 1 μM
Method: D) Human cardiac fibroblasts (HCFs) were treated with TGFβ1 to induce a pro-fibrotic phenotype state in cell culture, exemplified by increased collagen-1 production, measured by Western blot. HCFs were treated with TGFβ1 alone, or in the presence of an AT2R agonist for 3 days, and the ability of AT2R agonists to inhibit TGFβ1-induced collagen-1 production was measured.
Commercially available human cardiac fibroblasts (HCF, Catalog #6300, Sciencell, Calif., USA) were grown in T75 flask maintained in an incubator at 37° C., 5% CO2. Complete media composition: M199 media (#11150-059, life technologies)+10% FBS (#10437-028, life technologies)+1% Fibroblast Growth Supplement-2 (#2382, ScienCell)+1% penicillin/streptomycin 10,000 U/ml antibiotics (#15140-122, Life Technologies). Fresh complete media was replenished every alternate day until culture reached 70% confluence in which media is replenished daily until it reached approximately 90% confluence in order to passage/subculture. To subculture, media was discarded and culture was rinsed with warm PBS. After which, culture was detached using warm 0.05% Trypsin+EDTA with gentle swirling of flask to make sure cells were not adherent to surface of flask. Trypsin was then neutralized with complete media and suspension was then transferred into a new falcon tube and centrifuged at 1000 rpm for 5 minutes. Supernatant was discarded and pellet of cells were resuspended with 5 ml of complete media, followed by cell counting. For subculturing/passaging, 1 million HCFs are placed into a T75 flask. For Picrosirius Red (PSR) staining or immunofluorescence experiments, 100 k cells were loaded per well in a 24 well plate lined with round coverslips. […]
Once treatment is complete, cells were washed with warm PBS and detached using Accutase (A6964, Sigma), with 5 minutes incubation at 37° C. […] The supernatant (˜20 ul) was transferred to a new tube and protein concentrations were measured using Biorad Lowry protein assay. Protein quantification of respective markers were performed via standard western blot analysis. […]

Arg-Val-Tyr-Ile-His-β-Pro-Phe [βPro-Ang III]
liver fibrosis (picrosirius red, polarized light) [1]: appears to attenuate | liver steatosis (Oil Red O) [1]: partially reversed | TGF-β1-induced collagen production [2]: dose-dependent decreases
